Among the data in patent publication US10570179B2, “Substituted urea depsipeptide analogs as activators of the CLPP endopeptidase” (priority 2016, dated 2020) are IC50, Human and MIC values, retold here.

The term IC50 denotes the concentration needed to halve the response being measured.

The target of data set [1] is T1, Sa-ClpP (Staphylococcus aureus, UniProt Q2G036).
T1 construct: made in house; host or cells: E. coli BL21 (DE3)
As to the kind of experiment: ADEP displacement fluorescence polarization assay. The note with it: displacement of FP probe ADEP 2591 from Sa-ClpP. It counts as binding, S. aureus. The procedure:
A fluorescence polarization (FP) assay was used to determine the activity of the disclosed compounds in displacing an ADEP analogue from ClpP. Briefly, the assay was performed in black 384 well, flat bottom, low volume plates (Greiner Bio-One, Monroe, N.C., catalog #784076). 20 μL of a pre-equilibrated (1 hr, room temperature) master mix (15 μM Sa-ClpP, 2% DMSO (v/v) and 50 nM FP probe in TrisHCl, pH 8.0)) was pipetted into each well using a Well-Mate (Thermo Scientific, Waltham, Mass.). Sa-ClpP was prepared as described above for the ClpP activation assay. The FP probe was ADEP 2591 (structure shown above). The ADEP 2591 comprises a TAMRA fluorophore linked to a core based on modified ADEP 2378 via a short alkyl linker. Using pin transfer, approximately 0.4 μL (2% v/v DMSO) of each compound or control was added per well. After addition of compounds and controls, plates were allowed to incubate for an additional 120 minutes at room temperature. All assays were performed in triplicate. Polarization was monitored using an EnVision Multilabel reader (Perkin-Elmer, Waltham, Mass.) by exciting the FP probe at 530±25 nm, and monitoring fluorescence intensity of both parallel and perpendicular polarized light at 579±25 nm. Readout was in millipolarization units (mP).
Signal gain and G factors were determined in wells containing 200 μM ADEP 2378, which had been previously verified (data not shown) as containing completely unbound ADEP 2591. Data collected was normalized to values obtained from positive (200 μM ADEP 2378) or negative (DMSO) controls. Curves were fit with non-linear regression using the equation “log [inhibitor] vs. Response-variable slope (four parameters)-symmetrical” in the program Prism 6 (GraphPad Software, La Jolla, Calif. USA, www.graphpad.com). The structures for ADEP 2378 and ADEP 2591 are shown above. ADEP 2378 is (E)-N—((S)-1-(((2R,6S,8aS,14aS,20S,23aS)-2,6-dimethyl-5,8,14,19,23-pentaoxooctadecahydro-1H,5H,14H,19H-pyrido[2,1-i]dipyrrolo[2,1-c:2′,1′-1][1]oxa[4,7,10,13]tetraazacyclohexadecin-20-yl)amino)-1-oxo-3-phenylpropan-2-yl)pent-2-enamide. ADEP 2591 is 5-(3-(3-((6S,9S,11aS,17S,20aS)-6,10-dimethyl-5,8,11,16,20-pentaoxo-17-((S)-2-((E)-pent-2-enamido)-3-phenylpropanamido)hexadecahydro-1H,5H,16H-dipyrrolo[2,1-c:2′,1′-1][1]oxa[4,7,10,13]tetraazacyclohexadecin-9-yl)propyl)thioureido)-2-(6-(dimethylamino)-3-(dimethyliminio)-3H-xanthen-9-yl)benzoate.

A short description of data set [2]: Plasma protein binding, rapid equilibrium dialysis. Format: in vitro ADME, human. The settings on record: 10 μM. An outline of the steps:
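Compound spiked at 10 μM (0.1% DMSO) into human plasma, dialysed against DPBS pH 7.4 across 8 K MWCO RED membrane for 4 h at 37 °C with shaking. Both chambers quantified by LC-MS against warfarin internal standard; % free = buffer/plasma concentration ×100, % bound = 100 − % free.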
(Equilibrium dialysis compares concentrations on both sides of a semipermeable membrane.)

For data set [3], the system named is S. aureus ATCC 29213. As to the kind of experiment: Minimal inhibitory concentration, microbroth dilution. Format: cell-based. The settings on record: Staphylococcus aureus. An outline of the steps:
(§1)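 Compound was diluted twofold in the appropriate broth. Bacterial suspension (approx. 10^5 cfu/mL) was then added in equal volume, giving a maximum test concentration of 200 μM. After aerobic overnight incubation at 37 °C, wells were inspected visually for growth.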
A general note: In broth dilution the organism is exposed to a series of concentrations in liquid medium.

Data set [4] has as its system E. faecails. The data set is described as above. The note with it: Enterococcus faecalis. Format: cell-based. An outline of the steps:
as §1

[5] abbreviates: ATCC29213, MIC, read-out: Minimal Inhibitory Concentrations (μM) S. aureus ATCC 29213.
[6] abbreviates: MIC, read-out: Minimal Inhibitory Concentrations (μM) E. faecails.

Converted amounts (≈) assume the structure as drawn. Where two headings read alike, the source gives them in different places. Numbered stars: 1 amine (or outer) side, 2 acyl side, 3 side chain; on linkers, the order of the positions; unused ones are H or OH. Bridge positions count the residues as written; N and C are the ends. Square brackets hold non-standard residues; d marks the D form. Peptide text beside a SMILES is read from it. * marks the point of attachment. X5 = O=C([C@@H]1C[C@@H](OP(=O)(O)O)CN1[*:1])[*:2]; Phe(3-CF3) = N[C@@H](Cc1cccc(C(F)(F)F)c1)C(=O)O; Piperazine(2S-CO,4-Me) = CN1CCN[C@H](C(=O)O)C1; Phe(3-Me) = Cc1cccc(C[C@H](N)C(=O)O)c1; NH(4-Cl-2-F-phenyl) = Fc1cc(Cl)ccc1N*; Pro(4R-Me) = C[C@H]1CN[C@H](C(=O)O)C1; Hyp = O=C(O)[C@@H]1C[C@@H](O)CN1; aThr = C[C@H](O)[C@H](N)C(=O)O; Pip = O=C(O)[C@@H]1CCCCN1; CO = O=C([*:1])[*:2]

T1 sequence (Q2G036 whole entry): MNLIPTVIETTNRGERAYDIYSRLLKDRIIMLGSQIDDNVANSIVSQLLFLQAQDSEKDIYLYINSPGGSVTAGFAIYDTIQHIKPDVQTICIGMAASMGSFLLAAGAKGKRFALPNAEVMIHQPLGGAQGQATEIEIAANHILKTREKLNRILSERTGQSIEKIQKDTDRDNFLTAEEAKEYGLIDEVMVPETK

Regarding `Cc1cccc(C[C@H](NC(=O)Nc2ccc(Cl)cc2F)C(=O)N[C@@H]2C(=O)N3C[C@H](O)C[C@H]3C(=O)N3CCN(C)C[C@H]3C(=O)N[C@@H](C)C(=O)N3C[C@H](C)C[C@H]3C(=O)O[C@H]2C)c1` [Compound 31, (S)-2-(3-(4-CHLORO-2-FLUOROPHENYL)UREIDO)-N-((6AS,8R,12S,13S,15AS,17R,21S,23AS)-8-HYDROXY-2,13,17,21-TETRAMETHYL-6,11,15,20,23-PENTAOXOOCTADECAHYDRO-2H,6H,11H,15H-PYRAZINO[2,1-I]DIPYRROLO[2,1-C:2′,1′-L][1]OXA[4,7,10,13]TETRAAZACYCLOHEXADECIN-12-YL)-3-(M-TOLYL)PROPANAMIDE] ({NH(4-Cl-2-F-phenyl)-CO}-[Phe(3-Me)][aThr][Hyp][Piperazine(2S-CO,4-Me)]A[Pro(4R-Me)]; ester 2-C), the concentration for half-maximal inhibition (IC50) in data set [1] came to 3.07 ± 0.07 µM. Besides, in data set [2] (human, 4 h, pH 7.4), the Human worked out at 97.9 ± 7.9%. Also, the MIC in data set [3] (setting [5]) and in data set [4] (setting [6]) was less than 0.02 µM throughout.
`C[C@@H]1C[C@H]2C(=O)OC[C@H](NC(=O)[C@H](Cc3cccc(C(F)(F)F)c3)NC(=O)Nc3ccc(Cl)cc3F)C(=O)N3CCC[C@H]3C(=O)N3CCN(C)C[C@H]3C(=O)N[C@@H](C)C(=O)N2C1` [Compound 18, (S)-2-(3-(4-CHLORO-2-FLUOROPHENYL)UREIDO)-3-(3-(TRIFLUOROMETHYL)PHENYL)-N-((6AS,12S,15AS,17R,21S,23AS)-2,17,21-TRIMETHYL-6,11,15,20,23-PENTAOXOOCTADECAHYDRO-2H,6H,11H,15H-PYRAZINO[2,1-I]DIPYRROLO[2,1-C:2′,1′-L][1]OXA[4,7,10,13]TETRAAZACYCLOHEXADECIN-12-YL)PROPANAMIDE] ({NH(4-Cl-2-F-phenyl)-CO}-[Phe(3-CF3)]SP[Piperazine(2S-CO,4-Me)]A[Pro(4R-Me)]; ester 2-C): the IC50 in data set [1] worked out at 4.79 ± 0.27 µM. Moreover, the Human in data set [2] (human, 4 h, pH 7.4) came out at 99.0 ± 0.1%. Further, the MIC was 10 µM (≈ 8.79 µg/mL) in data set [3] (setting [5]) and 0.313 µM (≈ 0.275 µg/mL) in data set [4] (setting [6]).
Regarding `Cc1cccc(C[C@H](NC(=O)Nc2ccc(Cl)cc2F)C(=O)N[C@H]2COC(=O)[C@@H]3C[C@@H](C)CN3C(=O)[C@H](C)NC(=O)[C@@H]3CCCCN3C(=O)[C@@H]3CCCN3C2=O)c1` [Compound 8, (S)-2-(3-(4-CHLORO-2-FLUOROPHENYL)UREIDO)-N-((2R,6S,8AS,14AS,20S,23AS)-2,6-DIMETHYL-5,8,14,19,23-PENTAOXOOCTADECAHYDRO-1H,5H,14H,19H-PYRIDO[2,1-I]DIPYRROLO[2,1-C:2′,1′-L][1]OXA[4,7,10,13]TETRAAZACYCLOHEXADECIN-20-YL)-3-(M-TOLYL)PROPANAMIDE], in data set [1], the IC50 is 3.51 ± 0.1 µM. This compound yielded a Human in data set [2] (human, 4 h, pH 7.4) of 98.2 ± 0.2%. The results for the MIC in data set [3] (setting [5]) and in data set [4] (setting [6]) were 0.625 µM (≈ 0.506 µg/mL) and 0.156 µM (≈ 0.126 µg/mL), respectively.
In turn, `Cc1cccc(C[C@H](NC(=O)Nc2ccc(Cl)cc2F)C(=O)N[C@@H]2C(=O)N3C[C@H](OP(=O)(O)O)C[C@H]3C(=O)N3CCCC[C@H]3C(=O)N[C@@H](C)C(=O)N3C[C@H](C)C[C@H]3C(=O)O[C@H]2C)c1` [Compound 29, (2R,6S,8AS,14AS,16R,20S,21S,23AS)-20-((S)-2-(3-(4-CHLORO-2-FLUOROPHENYL)UREIDO)-3-(M-TOLYL)PROPANAMIDO)-2,6,21-TRIMETHYL-5,8,14,19,23-PENTAOXOOCTADECAHYDRO-1H,5H,14H,19H-PYRIDO[2,1-I]DIPYRROLO[2,1-C:2′,1′-L][1]OXA[4,7,10,13]TETRAAZACYCLOHEXADECIN-16-YL DIHYDROGEN PHOSPHATE] ({NH(4-Cl-2-F-phenyl)-CO}-[Phe(3-Me)][aThr][X5][Pip]A[Pro(4R-Me)]; ester 2-C) came in with a concentration for half-maximal inhibition (IC50) in data set [1] of 4.45 ± 0.45 µM. Further, the Human in data set [2] (plasma binding, % Bound, human plasma) is listed as 98.8 ± 8.8%. The MIC in data set [3] (ATCC29213, read-out: Minimal Inhibitory Concentrations (μM) S. aureus ATCC 29213, MIC) is 5 µM; in data set [4] (read-out: Minimal Inhibitory Concentrations (μM) E. faecails, MIC) it was 20 µM.
